Test results as given in ChEMBL document CHEMBL1201862, “PubChem BioAssay data set” (2004).
Calls of active or inactive are those of the source.

Columns and labels:
[1] = THP-1 cell cytotoxicity, dose response, cytotoxicity control, set 3 (AID 504852); assay type: functional; conditions: Mycobacterium tuberculosis
[2] = THP-1 cell cytotoxicity, cytotoxicity control, set 4 (AID 504911); assay type: functional; conditions: Mycobacterium tuberculosis
[3] = Vero cell cytotoxicity, dose response, cytotoxicity control for M. tuberculosis growth inhibitor project, Vero cells, purified and synthesized compounds, set 4 (AID 504854); assay type: functional; conditions: Mycobacterium tuberculosis
[4] = Vero cell cytotoxicity, cytotoxicity control for M. tuberculosis inhibitor project, purified and synthesized samples, set 3 (AID 504684); assay type: functional
[5] = molecular target: T1, High affinity choline transporter 1 (Homo sapiens, UniProt Q9GZV3); experiment: CHT activators, dose response, cell-based, 10-point CRC, membrane potential dye (AID 602376); assay type: functional
T1 sequence (Q9GZV3 whole entry): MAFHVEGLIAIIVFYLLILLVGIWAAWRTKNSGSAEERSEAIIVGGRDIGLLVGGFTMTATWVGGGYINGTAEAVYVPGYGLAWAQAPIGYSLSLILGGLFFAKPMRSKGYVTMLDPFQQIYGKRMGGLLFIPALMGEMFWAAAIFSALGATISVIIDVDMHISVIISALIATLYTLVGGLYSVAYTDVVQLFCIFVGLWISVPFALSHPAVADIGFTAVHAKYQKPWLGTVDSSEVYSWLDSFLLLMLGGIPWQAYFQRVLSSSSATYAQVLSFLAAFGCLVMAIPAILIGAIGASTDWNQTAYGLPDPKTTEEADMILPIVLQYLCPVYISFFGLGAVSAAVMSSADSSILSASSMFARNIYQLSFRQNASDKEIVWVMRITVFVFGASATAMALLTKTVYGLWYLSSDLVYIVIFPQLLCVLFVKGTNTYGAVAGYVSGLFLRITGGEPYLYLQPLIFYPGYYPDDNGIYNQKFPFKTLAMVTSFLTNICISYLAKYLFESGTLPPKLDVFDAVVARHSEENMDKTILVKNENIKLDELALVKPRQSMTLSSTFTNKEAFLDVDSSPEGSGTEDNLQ

[6] = molecular target: Delta-type opioid receptor (Homo sapiens, UniProt P41143); experiment: Counterscreen for agonists of heterodimerization of the mu 1 (OPRM1) and delta 1 (OPRD1) opioid receptors: Luminescence-based cell-based high throughput dose response assay to identify agonists of OPRD1 homodimerization. [Related pubchem assays (depositor defined):AID504326, AID504355, AID504692, AID504904, AID504905]; assay type: functional
[7] = molecular target: 5-hydroxytryptamine receptor 5A (Homo sapiens, UniProt P47898); experiment: Counterscreen for agonists of OPRM1-OPRD1 heterodimerization: luminescence-based cell-based high throughput dose response assay to identify agonists of 5-hydroxytryptamine (serotonin) 5A receptor (HTR5A). [Related pubchem assays (depositor defined):AID504326, AID504355, AID504692, AID504904, AID504905]; assay type: functional
[8] = HEK293T cytotoxicity, dose response, cytotoxicity control for miR-122 modulator project, cell-based, activator set, cherry-pick (AID 720690); assay type: functional;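 further: HEK293T human cells scored for general mammalian cytotoxicity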
Mu-type opioid receptor = Mu-type opioid receptor (Homo sapiens, UniProt P35372); experiment: Counterscreen for agonists of heterodimerization of the mu 1 (OPRM1) and delta 1 (OPRD1) opioid receptors: Luminescence-based cell-based high throughput dose response assay to identify agonists of OPRM1 homodimerization.; assay type: functional;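 further: U2OS cells expressing OPRM1 and beta-arrestin as split beta-galactosidase partners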
[9] = molecular target: T2, Potassium voltage-gated channel subfamily KQT member 4 (Homo sapiens, UniProt P56696); experiment: KCNQ4 channel modulation, potentiation or inhibition, dose response, selectivity assay for KCNQ2 activator project, thallium flux, KCNQ4-expressing cells (AID 504416); assay type: functional, cell-based
T2 sequence (P56696 whole entry): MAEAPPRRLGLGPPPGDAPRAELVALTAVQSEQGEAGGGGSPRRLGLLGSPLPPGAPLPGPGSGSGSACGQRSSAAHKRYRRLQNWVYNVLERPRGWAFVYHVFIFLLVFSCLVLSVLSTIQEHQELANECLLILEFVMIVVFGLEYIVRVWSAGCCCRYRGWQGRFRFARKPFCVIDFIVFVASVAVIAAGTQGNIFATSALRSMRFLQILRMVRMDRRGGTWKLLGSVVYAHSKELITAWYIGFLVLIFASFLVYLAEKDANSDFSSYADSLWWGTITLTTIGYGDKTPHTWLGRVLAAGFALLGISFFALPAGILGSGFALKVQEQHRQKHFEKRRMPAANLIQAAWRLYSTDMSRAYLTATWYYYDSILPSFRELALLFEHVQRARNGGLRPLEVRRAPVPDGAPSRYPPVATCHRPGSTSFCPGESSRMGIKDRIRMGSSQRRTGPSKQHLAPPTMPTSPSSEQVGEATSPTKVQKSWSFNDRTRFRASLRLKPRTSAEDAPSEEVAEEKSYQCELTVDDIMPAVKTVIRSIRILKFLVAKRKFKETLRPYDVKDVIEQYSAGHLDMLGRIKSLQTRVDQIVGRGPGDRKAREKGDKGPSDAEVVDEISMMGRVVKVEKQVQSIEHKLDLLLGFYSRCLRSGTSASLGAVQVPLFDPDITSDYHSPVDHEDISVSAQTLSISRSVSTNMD

[10] = KCNQ1/KCNE1 channel current potentiation, dose response, selectivity assay for KCNQ2 activator project, automated patch clamp, CHO cells (AID 493042); assay type: functional
[11] = molecular target: Potassium voltage-gated channel subfamily KQT member 2 (Rattus norvegicus, UniProt O88943); experiment: Mode of action assay-Dose response assay for compounds that activate KCNQ2 potassium channels on automated patch clamp. [Related pubchem assays (depositor defined):AID2239, AID2258, AID2287, AID493113]; assay type: functional
Chain of Potassium voltage-gated channel subfamily KQT member 2 (O88943 whole entry): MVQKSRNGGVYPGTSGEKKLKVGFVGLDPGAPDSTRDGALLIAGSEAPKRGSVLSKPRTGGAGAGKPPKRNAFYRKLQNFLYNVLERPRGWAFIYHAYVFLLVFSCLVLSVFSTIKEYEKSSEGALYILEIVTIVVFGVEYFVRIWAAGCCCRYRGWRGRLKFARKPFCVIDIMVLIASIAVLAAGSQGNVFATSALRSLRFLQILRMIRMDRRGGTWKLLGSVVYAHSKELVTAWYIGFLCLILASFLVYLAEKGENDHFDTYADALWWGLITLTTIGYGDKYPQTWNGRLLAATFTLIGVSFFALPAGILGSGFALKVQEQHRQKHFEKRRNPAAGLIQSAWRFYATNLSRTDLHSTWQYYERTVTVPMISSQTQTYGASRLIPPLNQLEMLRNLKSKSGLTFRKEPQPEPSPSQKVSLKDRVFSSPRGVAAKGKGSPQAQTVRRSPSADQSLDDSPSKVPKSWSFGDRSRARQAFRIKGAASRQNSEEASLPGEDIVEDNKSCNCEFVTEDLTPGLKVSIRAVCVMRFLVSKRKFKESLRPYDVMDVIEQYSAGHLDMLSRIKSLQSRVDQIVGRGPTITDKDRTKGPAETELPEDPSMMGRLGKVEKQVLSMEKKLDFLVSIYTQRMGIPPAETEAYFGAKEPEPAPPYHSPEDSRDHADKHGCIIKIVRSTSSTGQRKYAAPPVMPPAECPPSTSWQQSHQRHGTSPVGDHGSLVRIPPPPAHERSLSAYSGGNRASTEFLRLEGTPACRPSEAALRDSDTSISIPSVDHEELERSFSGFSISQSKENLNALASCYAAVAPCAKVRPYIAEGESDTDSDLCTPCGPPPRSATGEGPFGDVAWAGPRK

[12] = molecular target: T2, Potassium voltage-gated channel subfamily KQT member 4; experiment: human KCNQ4 channel current potentiation, dose response, selectivity assay for KCNQ2 activator project, automated patch clamp, CHO cells (AID 493043); assay type: functional, cell-based
[13] = KCNQ1 channel current modulation by KCNQ2 openers, dose response, selectivity assay for KCNQ2 activator project, automated patch clamp, KCNQ1-CHO cells (AID 493044); assay type: functional, cell-based
[14] = molecular target: Potassium voltage-gated channel subfamily KQT member 2/member 3 (Rattus norvegicus, UniProt O88943+O88944); experiment: Mode of action assay-Dose response assay for KCNQ2 activators in the KCNQ2/KCNQ3 co-expressing cells on automated patch clamp. [Related pubchem assays (depositor defined):AID2239, AID2258, AID2287]; assay type: functional
Chain of Potassium voltage-gated channel subfamily KQT member 2/member 3 (O88943 whole entry): as above
Chain of Potassium voltage-gated channel subfamily KQT member 2/member 3 (O88944 whole entry): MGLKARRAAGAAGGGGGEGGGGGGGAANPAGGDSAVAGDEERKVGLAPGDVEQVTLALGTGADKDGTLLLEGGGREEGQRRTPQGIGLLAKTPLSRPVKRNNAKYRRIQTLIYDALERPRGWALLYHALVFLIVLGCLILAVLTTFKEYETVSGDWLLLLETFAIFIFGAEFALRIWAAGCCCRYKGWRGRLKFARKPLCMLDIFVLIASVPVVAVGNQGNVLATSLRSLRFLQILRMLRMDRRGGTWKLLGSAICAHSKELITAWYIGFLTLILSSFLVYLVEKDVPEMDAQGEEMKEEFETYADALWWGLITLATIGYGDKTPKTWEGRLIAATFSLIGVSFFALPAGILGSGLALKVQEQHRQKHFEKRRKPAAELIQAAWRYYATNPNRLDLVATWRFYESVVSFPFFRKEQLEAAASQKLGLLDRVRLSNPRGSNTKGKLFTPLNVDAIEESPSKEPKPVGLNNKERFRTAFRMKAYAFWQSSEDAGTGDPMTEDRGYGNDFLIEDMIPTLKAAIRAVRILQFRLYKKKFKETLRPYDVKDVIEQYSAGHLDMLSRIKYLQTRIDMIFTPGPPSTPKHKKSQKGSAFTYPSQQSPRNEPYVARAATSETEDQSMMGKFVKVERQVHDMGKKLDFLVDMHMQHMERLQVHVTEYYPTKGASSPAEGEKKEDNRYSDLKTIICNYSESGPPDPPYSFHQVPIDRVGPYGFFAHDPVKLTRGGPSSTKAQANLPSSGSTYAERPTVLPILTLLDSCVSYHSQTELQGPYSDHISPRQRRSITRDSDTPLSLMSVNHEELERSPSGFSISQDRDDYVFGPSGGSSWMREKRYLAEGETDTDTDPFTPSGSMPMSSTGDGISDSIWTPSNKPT

[15] = molecular target: Protein disulfide-isomerase (Homo sapiens, UniProt P07237); experiment: PDI inhibitors, insulin aggregation turbidity, dose response, biochemical, absorbance, cherry-picked samples (AID 602350); assay type: functional
Chain of Protein disulfide-isomerase (P07237 whole entry): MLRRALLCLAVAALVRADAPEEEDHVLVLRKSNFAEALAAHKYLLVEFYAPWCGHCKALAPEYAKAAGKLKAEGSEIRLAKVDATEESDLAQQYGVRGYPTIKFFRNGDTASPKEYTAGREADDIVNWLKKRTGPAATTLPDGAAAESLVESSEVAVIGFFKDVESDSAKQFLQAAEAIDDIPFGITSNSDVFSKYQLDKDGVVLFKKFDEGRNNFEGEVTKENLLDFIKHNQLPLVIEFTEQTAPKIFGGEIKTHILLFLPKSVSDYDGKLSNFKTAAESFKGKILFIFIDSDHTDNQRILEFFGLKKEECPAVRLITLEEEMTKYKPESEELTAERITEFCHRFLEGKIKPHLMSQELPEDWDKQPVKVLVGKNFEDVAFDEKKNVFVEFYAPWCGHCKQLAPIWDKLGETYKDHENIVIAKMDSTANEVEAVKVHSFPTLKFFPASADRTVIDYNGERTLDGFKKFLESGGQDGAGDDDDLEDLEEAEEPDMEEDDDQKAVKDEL

[16] = molecular target: Dual specificity tyrosine-phosphorylation-regulated kinase 1A (Rattus norvegicus, UniProt Q63470); assay type: biochemical, Homo sapiens
HEK293 [17] = experiment: SAR Analysis of small molecule inhibitors of T-cell specific antigen receptor-induced NF-kB activation in a HEK-293T cell line using a luminescence assay. [Related pubchem assays (depositor defined):AID435003, AID435012, AID489026]; assay type: functional, cell-based; conditions: Homo sapiens
Jurkat = experiment: SAR Analysis of small molecule inhibitors of T-cell specific antigen receptor-induced NF-kB activation in a Jurkat cell line using a luminescence assay. [Related pubchem assays (depositor defined):AID435003, AID435012, AID465]; assay type: functional, cell-based; conditions: Homo sapiens
HEK293 [18] = experiment: cytotoxicity in HEK293T NF-kB-Luc cells, SAR follow-up, cytotoxicity control for NF-kB activator project, cell-based, resazurin fluorescence (AID 493251); assay type: functional; conditions: Homo sapiens
[19] = molecular target: Sphingosine 1-phosphate receptor 4 (Homo sapiens, UniProt O95977); experiment: Late-stage fluorescence-based dose-response cell-based counterscreen assay to identify agonists of the Sphingosine 1-Phosphate Receptor 3 (S1P3): Sphingosine 1-Phosphate Receptor 4 (S1P4) agonist assay.; assay type: functional
Chain of Sphingosine 1-phosphate receptor 4 (O95977 whole entry): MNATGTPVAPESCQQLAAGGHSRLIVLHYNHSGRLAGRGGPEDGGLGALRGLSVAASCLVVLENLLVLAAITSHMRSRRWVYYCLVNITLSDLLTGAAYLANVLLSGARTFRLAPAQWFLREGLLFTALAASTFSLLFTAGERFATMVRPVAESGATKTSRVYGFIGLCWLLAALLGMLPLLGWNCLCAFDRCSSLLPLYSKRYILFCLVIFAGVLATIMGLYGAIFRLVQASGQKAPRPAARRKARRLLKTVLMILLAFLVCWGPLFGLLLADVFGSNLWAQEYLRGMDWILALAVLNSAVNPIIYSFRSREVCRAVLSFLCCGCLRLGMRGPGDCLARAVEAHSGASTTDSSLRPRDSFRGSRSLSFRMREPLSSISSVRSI

[20] = molecular target: Sphingosine 1-phosphate receptor 2 (Homo sapiens, UniProt O95136); experiment: Late-stage fluorescence-based dose-response cell-based counterscreen assay to identify agonists of the Sphingosine 1-Phosphate Receptor 3 (S1P3): Sphingosine 1-Phosphate Receptor 2 (S1P2) agonist assay.; assay type: functional
[21] = molecular target: Tyrosine-protein kinase Lck (Homo sapiens, UniProt P06239); assay type: functional;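 further: lck was assayed as one member of a kinase panel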
[22] = molecular target: Receptor-type tyrosine-protein kinase FLT3 (Homo sapiens, UniProt P36888); assay type: functional;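 further: FLT3 was tested as one member of a kinome-wide kinase panel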
[23] = molecular target: Tyrosine-protein kinase ABL1 (Homo sapiens, UniProt P00519); assay type: functional
[24] = molecular target: Tyrosine-protein kinase Blk (Homo sapiens, UniProt P51451); assay type: functional;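 further: obtained as one member of a kinome-wide kinase assay panel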
[25] = molecular target: Tyrosine-protein kinase Fyn (Homo sapiens, UniProt P06241); assay type: functional
[26] = molecular target: Tyrosine-protein kinase Lyn (Homo sapiens, UniProt P07948); assay type: functional;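 further: lyn as one member of a kinase panel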
Chain of Tyrosine-protein kinase Lyn (P07948 whole entry): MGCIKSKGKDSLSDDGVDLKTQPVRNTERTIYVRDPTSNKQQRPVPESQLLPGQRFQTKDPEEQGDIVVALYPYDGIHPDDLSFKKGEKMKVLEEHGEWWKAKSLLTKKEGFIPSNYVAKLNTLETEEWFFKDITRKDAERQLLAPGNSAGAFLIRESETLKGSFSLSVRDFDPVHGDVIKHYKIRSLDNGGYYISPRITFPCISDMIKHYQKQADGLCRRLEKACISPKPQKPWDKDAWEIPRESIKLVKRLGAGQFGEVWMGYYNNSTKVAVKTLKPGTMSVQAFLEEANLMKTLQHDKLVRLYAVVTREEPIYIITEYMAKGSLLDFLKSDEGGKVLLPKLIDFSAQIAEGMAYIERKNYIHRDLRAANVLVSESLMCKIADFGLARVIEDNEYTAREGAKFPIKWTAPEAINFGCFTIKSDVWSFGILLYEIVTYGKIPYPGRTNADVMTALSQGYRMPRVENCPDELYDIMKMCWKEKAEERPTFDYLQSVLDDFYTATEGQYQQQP

[27] = molecular target: Mast/stem cell growth factor receptor Kit (Homo sapiens, UniProt P10721); assay type: functional;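 further: KIT entry within a kinase panel assay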
[28] = molecular target: Vascular endothelial growth factor receptor 2 (Homo sapiens, UniProt P35968); assay type: functional
[29] = molecular target: Macrophage colony-stimulating factor 1 receptor (Homo sapiens, UniProt P07333); assay type: functional;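 further: value comes from the Navigating the Kinome screening panel, CSF1R member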
[30] = molecular target: Vascular endothelial growth factor receptor 1 (Homo sapiens, UniProt P17948); assay type: functional;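 further: measured within a kinome-wide profiling panel, FLT1 as the panel member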
[31] = molecular target: Proto-oncogene tyrosine-protein kinase Src (Homo sapiens, UniProt P12931); assay type: functional;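 further: SRC entry within a kinome-wide kinase profiling panel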
[32] = molecular target: Vascular endothelial growth factor receptor 3 (Homo sapiens, UniProt P35916); assay type: functional;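 further: value from a kinome-wide profiling panel, with FLT4 as the panel member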
Insulin-degrading enzyme [33] = molecular target: T3, Insulin-degrading enzyme (Homo sapiens, UniProt P14735); experiment: activators of recombinant IDE enzyme, dose response, counter-screen for IDE activator project, biochemical, fluorescence polarization (AID 588681)
T3 sequence (P14735 whole entry): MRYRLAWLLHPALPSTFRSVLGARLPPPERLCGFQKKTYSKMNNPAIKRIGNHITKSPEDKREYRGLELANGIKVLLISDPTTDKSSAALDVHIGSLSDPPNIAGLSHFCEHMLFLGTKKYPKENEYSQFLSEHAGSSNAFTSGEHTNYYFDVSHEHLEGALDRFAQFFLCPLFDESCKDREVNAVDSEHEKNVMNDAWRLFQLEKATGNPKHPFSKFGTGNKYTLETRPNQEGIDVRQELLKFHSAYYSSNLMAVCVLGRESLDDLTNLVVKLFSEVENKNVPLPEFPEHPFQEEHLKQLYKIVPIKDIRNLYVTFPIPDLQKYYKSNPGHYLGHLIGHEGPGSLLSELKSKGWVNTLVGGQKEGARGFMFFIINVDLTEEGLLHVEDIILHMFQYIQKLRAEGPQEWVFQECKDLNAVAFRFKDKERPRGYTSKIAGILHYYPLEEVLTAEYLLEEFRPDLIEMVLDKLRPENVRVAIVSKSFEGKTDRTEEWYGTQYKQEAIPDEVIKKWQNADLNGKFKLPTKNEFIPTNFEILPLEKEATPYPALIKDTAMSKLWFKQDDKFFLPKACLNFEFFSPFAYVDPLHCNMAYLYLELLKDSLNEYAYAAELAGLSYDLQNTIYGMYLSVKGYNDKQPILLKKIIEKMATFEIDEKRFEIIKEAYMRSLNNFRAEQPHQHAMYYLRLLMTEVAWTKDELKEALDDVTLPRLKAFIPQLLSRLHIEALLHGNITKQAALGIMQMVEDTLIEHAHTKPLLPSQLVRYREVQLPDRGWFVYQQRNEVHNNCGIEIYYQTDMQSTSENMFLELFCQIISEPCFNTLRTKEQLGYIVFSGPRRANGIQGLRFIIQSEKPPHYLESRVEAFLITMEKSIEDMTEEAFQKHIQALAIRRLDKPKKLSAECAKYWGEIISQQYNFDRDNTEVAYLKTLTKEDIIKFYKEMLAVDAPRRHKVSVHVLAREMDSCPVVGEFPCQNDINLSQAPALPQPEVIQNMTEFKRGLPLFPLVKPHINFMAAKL

HEK293 [34] = experiment: HEK cell cytotoxicity by LDH release, dose response, cytotoxicity control for IDE activator project, fluorescence, HEK cells (AID 588440); assay type: functional, cell-based; conditions: Homo sapiens;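 further: cytotoxicity by LDH release measuring loss of membrane integrity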
HEK293 [35] = experiment: optical interference in Abeta FP readout, dose response, artefact control for IDE activator project, biochemical, fluorescence polarization (AID 588442); assay type: functional, cell-based; conditions: Homo sapiens
[36] = molecular target: T4, Carboxy-terminal domain RNA polymerase II polypeptide A small phosphatase 1 (Homo sapiens, UniProt Q9GZU7); experiment: inhibitors of CTDSP1, concentration-response testing, biochemical assay, absorbance-based, actives from ultra-high-throughput screening (AID 540297); assay type: functional
T4 sequence (Q9GZU7 whole entry): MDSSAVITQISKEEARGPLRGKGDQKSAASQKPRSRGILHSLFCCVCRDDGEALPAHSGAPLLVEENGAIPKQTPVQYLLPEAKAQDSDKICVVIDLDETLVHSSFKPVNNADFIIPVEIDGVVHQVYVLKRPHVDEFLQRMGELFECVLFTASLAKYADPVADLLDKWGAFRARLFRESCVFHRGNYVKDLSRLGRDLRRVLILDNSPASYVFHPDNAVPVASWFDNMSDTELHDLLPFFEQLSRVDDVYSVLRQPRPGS

Insulin-degrading enzyme [37] = molecular target: T3, Insulin-degrading enzyme; experiment: activators of endogenous IDE in HEK cells, dose response, cell-based, fluorescence polarization (AID 588439); assay type: functional

Question: For `O=C(CSc1nc(O)c2ccccc2n1)NCc1ccc(Cl)cc1`, which CC50 [1] is on record?
Answer: > 100 µM (active)

Question: What about the CC50 [2] of the same molecule?
Answer: > 100 µM (active)

Question: And the CC50 [3]?
Answer: > 100 µM (active)

Question: And the CC50 [4]?
Answer: > 100 µM (active)

Question: Which EC50 [5] does the source give for `COc1ccc(CN2CCc3c([nH]c4ccccc34)C2)c(OC)c1C` here?
Answer: 8.4 µM (active)

Question: And the EC50 [6]?
Answer: 74.3 µM (inactive)

Question: And the EC50 [7]?
Answer: 47.6 µM (inactive)

Question: What about the AC50 [8] of the same molecule?
Answer: 1.68 µM (active)

Question: What about the EC50 (Mu-type opioid receptor) of the same molecule?
Answer: > 30.8 µM (inactive)

Question: What does the source list for `Cc1ccc(C)c(NC(=O)C2CC3CCC2C3)c1` (centres undefined)?
Answer: EC50 [9]: 2.64 µM (active); EC50 [10]: 2.68 µM (active); EC50 [11]: 0.402 µM (active); EC50 [12]: 1.63 µM (active); EC50 [13]: 5.03 µM (active); EC50 [14]: 0.396 µM (active)

Question: What does the source list for `COc1cc(-c2oc3cc(O)cc(O)c3c(=O)c2O[C@@H]2O[C@H](COC3O[C@@H](C)[C@H](O)[C@@H](O)[C@H]3O)[C@@H](O)[C@H](O)[C@H]2O)ccc1O` (some centres undefined)?
Answer: AC50 [15]: 7.96 µM (active); AC50 [16]: 4.62 µM (active)

Question: Which results are given for `COc1ccc(C(NC(=O)c2ccccc2)c2ccc3cccnc3c2O)cc1` (centres undefined)?
Answer: IC50 (HEK293 [17]): 23.2 µM (inactive); IC50 (Jurkat): 2.67 µM (active); IC50 (HEK293 [18]): 6.26 µM (active)

Question: With `CC1CCCCC1N(C(=O)c1cc(C2CC2)on1)C1CCCCC1C` (centres undefined) as the molecule, how does the EC50 [19] read?
Answer: > 50 µM (inactive)

Question: And the EC50 [20]?
Answer: > 50 µM (inactive)

Question: Which Ki [21] does the source give for `Nc1n[nH]c2cccc(-c3ccc(NC(=O)Nc4cccc(C(F)(F)F)c4)c(F)c3)c12` here?
Answer: 0.2 µM (active)

Question: What about the Ki [22] of the same molecule?
Answer: 0.00316 µM (active)

Question: And the Ki [23]?
Answer: 0.316 µM (active)

Question: And the Ki [24]?
Answer: 0.251 µM (active)

Question: And the Ki [25]?
Answer: 0.1 µM (active)

Question: What about the Ki [26] of the same molecule?
Answer: 0.0398 µM (active)

Question: And the Ki [27]?
Answer: 0.00251 µM (active)

Question: What about the Ki [28] of the same molecule?
Answer: 0.000794 µM (active)

Question: And the Ki [29]?
Answer: 0.00316 µM (active)

Question: What about the Ki [30] of the same molecule?
Answer: 0.000316 µM (active)

Question: What about the Ki [31] of the same molecule?
Answer: 0.158 µM (active)

Question: And the Ki [32]?
Answer: 0.00316 µM (active)

Question: For `O=C(N/N=C/c1cn(-c2ccccc2)nc1-c1ccc2c(c1)OCCO2)c1ccncc1`, which EC50 (Insulin-degrading enzyme [33]) is on record?
Answer: > 54.7 µM (inactive)

Question: What about the IC50 (HEK293 [34]) of the same molecule?
Answer: 29.2 µM (inactive)

Question: And the EC50 (HEK293 [35])?
Answer: > 54.7 µM (inactive)

Question: And the IC50 [36]?
Answer: 6.51 µM (active)

Question: What about the EC50 (Insulin-degrading enzyme [37]) of the same molecule?
Answer: > 54.7 µM (inactive)
